Test results taken from ChEMBL document CHEMBL1201862, “PubChem BioAssay data set” (2004).
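Grown in 96-well plates, cells were treated for 48 hours with each compound at five concentrations. Insufficient inhibition: endpoint recorded as highest concentration tested. GI50: concentration for 50% inhibition of growth.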 The source made the active and inactive calls. Cut-off read from the data, not from the text of the source: active = GI50 up to about 1.1 µM and inactive = higher.

Experiments:
Experiment in all cases: DTP human tumour cell line panel, 48 h
786-0 = tested on: 786-0
ACHN = tested on: ACHN
COLO 205 = tested on: COLO 205
HCC 2998 = tested on: HCC 2998
KM12 = tested on: KM12
MOLT-4 = tested on: MOLT-4
NCI-H23 = tested on: NCI-H23
NCI-H460 = tested on: NCI-H460
OVCAR-4 = tested on: OVCAR-4
OVCAR-5 = tested on: OVCAR-5
SF-539 = tested on: SF-539
SN12C = tested on: SN12C
SNB-19 = tested on: SNB-19
SNB-75 = tested on: SNB-75
UACC-62 = tested on: UACC-62
UO-31 = tested on: UO-31
RXF 393 = tested on: RXF 393

Measured: GI50

CSC(C1c2ccccc2N(C)C2=NC(=O)N(C)C(=O)C21Cl)S(=O)(=O)c1ccc(C)cc1 (stereo not drawn)
inactive: 786-0 18.8 µM | ACHN 50.6 µM | COLO 205 40.2 µM | HCC 2998 > 100 µM | KM12 60.5 µM | MOLT-4 17.5 µM | NCI-H23 27 µM | NCI-H460 > 100 µM | OVCAR-4 61.2 µM | OVCAR-5 > 100 µM | SF-539 42 µM | SN12C 50.4 µM | SNB-19 64.3 µM | SNB-75 24 µM | UACC-62 91.8 µM | UO-31 79.8 µM

O=c1c2cc(Br)cc(Br)c2nc(CCCl)n1-c1ccc(O)c([N+](=O)[O-])c1
inactive: 786-0 18.3 µM | ACHN 19.7 µM | COLO 205 21 µM | HCC 2998 18.5 µM | KM12 18.5 µM | MOLT-4 23.8 µM | NCI-H23 21.7 µM | NCI-H460 21 µM | OVCAR-4 15.5 µM | OVCAR-5 18.9 µM | SF-539 21.4 µM | SN12C 17.6 µM | SNB-19 20.1 µM | SNB-75 19.8 µM | UACC-62 22.5 µM | UO-31 19.7 µM

C/C(=N/NS(=O)(=O)c1ccc(C)cc1)c1cccc[n+]1[O-]
inactive: 786-0 > 100 µM | ACHN > 100 µM | HCC 2998 > 100 µM | KM12 > 100 µM | MOLT-4 > 100 µM | NCI-H23 > 100 µM | NCI-H460 > 100 µM | OVCAR-4 > 100 µM | OVCAR-5 > 100 µM | SF-539 > 100 µM | SN12C > 100 µM | SNB-19 > 100 µM | SNB-75 > 100 µM | UACC-62 > 100 µM | UO-31 > 100 µM

Cc1cc(C)c(C(=O)c2no[n+]([O-])c2C(=O)c2c(C)cc(C)c(Br)c2C)c(C)c1Br
inactive: 786-0 15.1 µM | ACHN 12.6 µM | COLO 205 16.8 µM | KM12 13.6 µM | MOLT-4 4.65 µM | NCI-H23 11.5 µM | NCI-H460 14.2 µM | OVCAR-4 10.2 µM | OVCAR-5 16 µM | RXF 393 6.05 µM | SF-539 15.5 µM | SN12C 14.2 µM | SNB-19 15.7 µM | SNB-75 9.31 µM | UACC-62 10.7 µM | UO-31 7.67 µM

O=C(O)c1ccc2c(c1)C(=O)N(c1ccc(S(=O)(=O)c3ccc(N4C(=O)c5ccc(C(=O)O)cc5C4=O)cc3)cc1)C2=O
inactive: 786-0 > 100 µM | ACHN > 100 µM | COLO 205 > 100 µM | KM12 > 100 µM | MOLT-4 > 100 µM | NCI-H23 > 100 µM | NCI-H460 > 100 µM | OVCAR-4 > 100 µM | OVCAR-5 > 100 µM | RXF 393 > 100 µM | SF-539 > 100 µM | SN12C > 100 µM | SNB-19 > 100 µM | SNB-75 > 100 µM | UACC-62 > 100 µM | UO-31 > 100 µM

CCOc1ccccc1NC(=O)CSc1nnc(Cc2ccccc2)o1
inactive: 786-0 17.9 µM | ACHN 22.5 µM | COLO 205 20.6 µM | HCC 2998 48.1 µM | KM12 40.3 µM | MOLT-4 23 µM | NCI-H23 17.2 µM | NCI-H460 20.2 µM | OVCAR-4 26.4 µM | OVCAR-5 66.1 µM | RXF 393 35.7 µM | SF-539 25.5 µM | SN12C 26 µM | SNB-19 24 µM | SNB-75 56.1 µM | UACC-62 25.8 µM | UO-31 23.9 µM

CCCCCCCCCCCc1nnc(N)o1
inactive: 786-0 > 100 µM | ACHN > 100 µM | COLO 205 > 100 µM | HCC 2998 > 100 µM | KM12 > 100 µM | MOLT-4 26.6 µM | NCI-H23 > 100 µM | NCI-H460 > 100 µM | OVCAR-4 65.2 µM | OVCAR-5 > 100 µM | SF-539 > 100 µM | SN12C > 100 µM | SNB-19 18.9 µM | SNB-75 > 100 µM | UACC-62 > 100 µM | UO-31 13.6 µM

COc1cc(C(=O)C/C(CCC(=O)Nc2ccccc2[N+](=O)[O-])=N\NC(=O)C(N)=O)ccc1O
inactive: 786-0 > 100 µM | ACHN > 100 µM | COLO 205 > 100 µM | KM12 > 100 µM | MOLT-4 > 100 µM | NCI-H23 > 100 µM | NCI-H460 > 100 µM | OVCAR-4 > 100 µM | OVCAR-5 > 100 µM | RXF 393 76.4 µM | SF-539 > 100 µM | SNB-19 > 100 µM | UACC-62 > 100 µM | UO-31 > 100 µM

CC1CC#CCOC(=O)CCCC1=O (stereo not drawn)
inactive: 786-0 > 100 µM | COLO 205 > 100 µM | HCC 2998 > 100 µM | KM12 > 100 µM | MOLT-4 > 100 µM | NCI-H23 > 100 µM | NCI-H460 > 100 µM | OVCAR-4 > 100 µM | RXF 393 > 100 µM | SF-539 > 100 µM | SN12C > 100 µM | SNB-19 > 100 µM | SNB-75 > 100 µM | UACC-62 > 100 µM

CCn1c(=O)nc2n(-c3ccc(SC)cc3)c3ccccc3nc-2c1=O
inactive: 786-0 > 100 µM | ACHN 1.87 µM | COLO 205 8.15 µM | HCC 2998 29 µM | KM12 > 100 µM | MOLT-4 > 100 µM | NCI-H23 > 100 µM | NCI-H460 20.9 µM | OVCAR-4 > 100 µM | OVCAR-5 > 100 µM | SF-539 54 µM | SN12C > 100 µM | SNB-19 > 100 µM | SNB-75 76 µM | UACC-62 50.9 µM | UO-31 > 100 µM

C[N+](C)=c1[nH]c2ccccc2[nH]1
inactive: 786-0 > 100 µM | ACHN > 100 µM | COLO 205 > 100 µM | HCC 2998 > 100 µM | KM12 > 100 µM | MOLT-4 > 100 µM | NCI-H23 > 100 µM | NCI-H460 > 100 µM | OVCAR-4 > 100 µM | OVCAR-5 > 100 µM | RXF 393 > 100 µM | SF-539 > 100 µM | SN12C > 100 µM | SNB-75 24.3 µM | UACC-62 > 100 µM | UO-31 > 100 µM

COc1cc2ccnc(-c3c4ccccc4c(N)c4c(OC)c(OC)ccc34)c2cc1OC
inactive: 786-0 2.65 µM | ACHN 3.54 µM | COLO 205 1.58 µM | HCC 2998 2.62 µM | KM12 2.38 µM | MOLT-4 1.49 µM | NCI-H23 3.21 µM | NCI-H460 1.79 µM | OVCAR-4 1.97 µM | RXF 393 2.4 µM | SF-539 2.09 µM | SN12C 3.47 µM | SNB-19 2.85 µM | UACC-62 2.79 µM | UO-31 3.18 µM

CC(=O)OCC1OC(n2cccnc2=O)C(OC(C)=O)C1OC(C)=O (stereo not drawn)
inactive: 786-0 > 100 µM | ACHN > 100 µM | COLO 205 > 100 µM | KM12 > 100 µM | MOLT-4 > 100 µM | NCI-H460 > 100 µM | OVCAR-4 > 100 µM | OVCAR-5 > 100 µM | RXF 393 > 100 µM | SN12C > 100 µM | SNB-19 > 100 µM | SNB-75 > 100 µM | UACC-62 > 100 µM | UO-31 > 100 µM

CC(=O)OC1(C)C(=O)OC1(C)C(C)=O (stereo not drawn)
inactive: 786-0 > 100 µM | ACHN > 100 µM | COLO 205 > 100 µM | HCC 2998 > 100 µM | KM12 > 100 µM | MOLT-4 > 100 µM | NCI-H23 > 100 µM | OVCAR-4 > 100 µM | OVCAR-5 > 100 µM | RXF 393 > 100 µM | SF-539 > 100 µM | SN12C > 100 µM | SNB-19 > 100 µM | SNB-75 > 100 µM | UACC-62 > 100 µM | UO-31 > 100 µM

Cc1cccc(O)c(=O)c1
inactive: 786-0 9.12 µM | ACHN 31.7 µM | COLO 205 6.24 µM | HCC 2998 44.4 µM | KM12 20.3 µM | MOLT-4 6.38 µM | NCI-H460 31.7 µM | OVCAR-4 45.8 µM | OVCAR-5 47.6 µM | RXF 393 > 100 µM | SF-539 29.6 µM | SN12C 37.8 µM | SNB-19 92.9 µM | SNB-75 83.6 µM | UACC-62 11.4 µM | UO-31 73.3 µM

COc1ccc(NC(=O)C2C(=O)N(c3ccc(OC)cc3)C(=O)/C2=N\NC(N)=O)cc1 (stereo not drawn)
inactive: 786-0 21.5 µM | ACHN 27.6 µM | COLO 205 > 100 µM | HCC 2998 30.9 µM | KM12 20.3 µM | NCI-H23 56.1 µM | NCI-H460 38.9 µM | OVCAR-4 34.1 µM | OVCAR-5 97.5 µM | RXF 393 22.5 µM | SF-539 16.8 µM | SN12C 98.9 µM | SNB-19 41.1 µM | SNB-75 20.6 µM | UACC-62 16.6 µM | UO-31 27.7 µM

CS(=O)(=O)NNS(=O)(=O)c1ccc(Br)cc1
inactive: 786-0 > 100 µM | ACHN > 100 µM | COLO 205 > 100 µM | HCC 2998 > 100 µM | NCI-H23 > 100 µM | NCI-H460 > 100 µM | OVCAR-4 > 100 µM | OVCAR-5 > 100 µM | RXF 393 > 100 µM | SF-539 > 100 µM | SNB-19 > 100 µM | SNB-75 87.7 µM | UACC-62 > 100 µM | UO-31 > 100 µM

Cc1ccc2nc3c(Cl)cc(=O)cc-3sc2c1
inactive: 786-0 19.8 µM | ACHN 23.3 µM | COLO 205 18.7 µM | KM12 > 10 µM | MOLT-4 10.9 µM | NCI-H23 > 10 µM | NCI-H460 29.4 µM | OVCAR-4 16.1 µM | OVCAR-5 > 10 µM | SF-539 3.38 µM | SN12C > 10 µM | SNB-19 > 10 µM | SNB-75 21.5 µM | UACC-62 15.9 µM | UO-31 34 µM
